The values that follow come from paper PMC8397956 (Molecules, 2021).

SMILES strings stand for the structures. Read-outs that look alike come from different tables or passages of the source. Marks after values point to notes of the source that are not given here.

For assay [1], the system named is Plasmodium falciparum (K1 strain). The arrangement: method as in PMID 20568776. To be noted: racemic mixtures, intraerythrocytic forms, ref [14]; cited from earlier work.
The target in assay [2] is T1, E. coli H6-DXR (Escherichia coli, UniProt P45568).
T1 construct: His6 (H6)
To be noted: cited from earlier work.

For assay [3], the system named is E. coli XL1 Blue. To be noted: cited from earlier work.
Assay [4] addresses T1, E. coli H6-DXR. In words: Inhibition of E. coli His-tagged DXR (photometric NADPH assay). Format: biochemical. Here is the method: The inhibition potency of α,α-difluorophosphonohydroxamic acid derivatives was characterized by their IC50 value that was determined as previously described. […] Residual activity was measured after initiating the enzymatic reaction by addition of DXP.
The assays were performed at 37 °C in a 50 mM Tris/HCl buffer pH 7.5 containing 3 mM MgCl2 and 2 mM DTT. The concentrations of DXP and NADPH were 480 µM and 160 µM respectively. The decrease of absorbance at 340 nm due to NADPH oxidation was monitored to determine the initial rates. The retained values were the average of at least two measurements. The relative average deviation must be lower than 4%.
Inhibitor concentrations in the stock solutions were verified by spectrophotometric phosphorus determination. The study compounds 9b and 10a, 10b were tested against E. coli DXR using a photometric assay that was described earlier. H-DXR was pre-incubated during 2 min in the presence of the inhibitors 9b, 10a and 10b at different concentrations and NADPH. DXP was then added to measure the residual activity. The inhibitory potential of the tested compounds was quantified by determining the IC50 values. They were obtained by plotting the percentage of residual activity versus the Log of inhibitor concentration.

The subject of assay [5] is E. coli XL1 Blue. In words: Growth inhibition of E. coli XL1 Blue, paper disc diffusion on LB solid medium. It is filed as cell-based, Escherichia coli. To be noted: for bacterial growth inhibition (in words) / colonies of tolerant bacteria in the inhibition zone: paper disc diffusion; for bacterial growth inhibition (in words): Figure 1A; for Growth Inhibition Zone: 24 h at 37 °C. Here is the method:
The antimicrobial activity of α,α-difluorophosphonate 9a and 10 was determined using the paper disc diffusion method and was compared with the antimicrobial activity of the non-fluorinated phosphonate and phosphate compounds 3, 4 et 6. The diameters of the inhibition zone are given with respect to the amount of inhibitor deposited on the disc (Table 2).
(§1) The antimicrobial activity of hydroxamic acids 9b, 10a and 10b against E. coli XL1 Blue and fosmidomycin-resistant strain E. coli FosR [7], was determined using the paper disc diffusion method. LB agar plates (9 cm diameter) were inoculated with a suspension of bacteria (200 μL, mid-exponential phase). […] Growth inhibition was examined after 24 h incubation at 37 °C.
In general terms: A growth-free zone around the sample is the usual read-out of agar diffusion tests.

Assay [6] has as its system fosmidomycin-resistant strain E. coli FosR. In words: Growth inhibition of fosmidomycin-resistant E. coli FosR, paper disc diffusion. It is filed as cell-based, Escherichia coli. To be noted: GlpT/UhpT transporters inoperative, Figure 1B. Here is the method:
as §1

T1 sequence (P45568 whole entry): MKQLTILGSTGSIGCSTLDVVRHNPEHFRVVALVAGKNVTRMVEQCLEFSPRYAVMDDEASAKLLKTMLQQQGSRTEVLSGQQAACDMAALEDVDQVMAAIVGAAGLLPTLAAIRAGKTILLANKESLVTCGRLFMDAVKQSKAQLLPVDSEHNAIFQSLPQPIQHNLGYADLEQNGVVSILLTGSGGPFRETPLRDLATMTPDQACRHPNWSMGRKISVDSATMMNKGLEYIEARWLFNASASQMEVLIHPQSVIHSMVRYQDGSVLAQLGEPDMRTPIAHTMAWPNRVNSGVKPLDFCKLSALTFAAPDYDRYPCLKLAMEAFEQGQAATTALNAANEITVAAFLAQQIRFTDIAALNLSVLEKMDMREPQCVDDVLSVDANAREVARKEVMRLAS

Take `CC(=O)N(O)CCC(F)P(=O)(O)O` (stereo not drawn) [Compound 7]: the “activity compared with parent compounds fosmidomycin and 4b” value in assay [1] was “more active”.

Regarding `O=C(CCOP(=O)(O)O)NO` [Compound 6a], the IC50 (commonly the concentration that gives 50% inhibition) in assay [2] (ref [9]) is 2600 nM. Also, the “Growth Inhibition Zone” value in assay [3] (400 nmoles/disc, ref [9]) was <10 * mm.

Take `O=C(CCC(F)(F)P(=O)(O)O)NO` [Compound 10a, (1,1-Difluoro-4-(hydroxyamino)-4-oxobutyl)phosphonic acid]: the IC50 in assay [4] was 4600 nM. Moreover, in assay [4] (ratio of IC50 values on E. coli DXR), the “fold less efficient than N-methylated analogue 10b” value was 280. Besides, the “bacterial growth inhibition (in words)” value in assay [5] is recorded as “no inhibition was observed”.

In assay [4], `CC(=O)N(O)CCC(F)(F)P(=O)(O)O` [Compound 9b, (1,1-Difluoro-3-(N-hydroxyacetamido)propyl)phosphonic acid] displayed a 50% inhibitory concentration (IC50) of 9 nM. Further, the “Growth Inhibition Zone” value in assay [5] (2 nmoles/disc) turned out to be 15 mm. Further, in assay [5], the “colonies of tolerant bacteria in the inhibition zone” value (shortened to “colonies … in the inhibition zone”) is on record as “did not appear” and the “bacterial growth inhibition (in words)” value is given as “quite effective to inhibit bacterial growth”. Also, the “bacterial growth inhibition (in words)” value in assay [6] is given as “No growth inhibition”.

For `CN(O)C(=O)CCC(F)P(=O)(O)O` (stereo not drawn) [Compound 8], in assay [1], the “activity compared with parent compounds fosmidomycin and 4b” value was “more active”.

Regarding `CC(=O)N(O)CCCP(=O)(O)O` [Compound 3b, FR-900098], the IC50 in assay [4] worked out at 4 nM. In assay [3] (2 nmoles/disc, ref [9]), the “Growth Inhibition Zone” value is on record as 32 * mm.

On to `CN(O)C(=O)CCCP(=O)(O)O` [Compound 4b], for which the “Growth Inhibition Zone” value in assay [3] (80 nmoles/disc, ref [8]) was 30 ** mm.

`CN(O)C(=O)CCC(F)(F)P(=O)(O)O` [Compound 10b, (1,1-Difluoro-4-(hydroxy(methyl)amino)-4-oxobutyl)phosphonic acid]: the IC50 in assay [4] worked out at 17 nM. Moreover, the “Growth Inhibition Zone” value in assay [5] (1.5 nmoles/disc) was 20 mm. Also, in assay [5], the “colonies … in the inhibition zone” value is recorded as “did not appear” and the “bacterial growth inhibition (in words)” value was “quite effective to inhibit bacterial growth”.

Take `O=CN(O)CCCP(=O)(O)O` [Compound 3a, fosmidomycin]: the “Growth Inhibition Zone” value in assay [5] (2 nmoles/disc) was determined as 35 mm. In assay [5], the “colonies … in the inhibition zone” value is reported as “colonies of tolerant bacteria”.

Take `CN(O)C(=O)CCOP(=O)(O)O` [Compound 6b]: the IC50 in assay [2] (ref [9]) was 46 nM. Besides, the “Growth Inhibition Zone” value in assay [3] (160 nmoles/disc, ref [9]) was 20 * mm.

Consider `O=CN(O)CCOP(=O)(O)O` [Compound 5a, fosfoxacin], for which the 50% inhibitory concentration (IC50) in assay [2] (ref [9]) was 342 nM.

For the compound `CC(=O)N(O)CCOP(=O)(O)O` [Compound 5b], in assay [2] (ref [9]), the 50% inhibitory concentration (IC50) was 77 nM.

Turning to `O=C(CCCP(=O)(O)O)NO` [Compound 4a], in assay [2] (ref [8]), the IC50 was 180 nM. Further, the “Growth Inhibition Zone” value in assay [3] (400 nmoles/disc, ref [8]) was 12 ** mm.
